Laboratory results reported in patent US20240336611A1 (Insilico Medicine IP Limited, priority 2021, published 2024).

Biological target: T1, TNIK kinase [amino acid sequence (1-367), Invitrogen] (Homo sapiens, UniProt Q9UKE5)
T1 construct: purchased Invitrogen
Assay: TNIK kinase inhibition assay (Z-lyte FRET-peptide)
Type: biochemical
Settings: 0.625 nM TNIK kinase, 2 μM Ser/Thr 7 peptide, 64 μM ATP, one hour at room temperature
Procedure: Z-lyte assay kit was purchased from Invitrogen. A site-specific protease recognizes and cleaves non-phosphorylated FRET-peptides. Phosphorylation of FRET-peptides suppresses cleavage by protease and will maintain FRET from donor to acceptor.
5 μl of Development Reagent A solution was then added to cleave non-phosphorylated peptide with a dilution 1:65000 in Development Buffer B. The assay plate was incubated at room temperature for another one hour and then read in the Envision plate reader (PerkinElmer).

T1 sequence (Q9UKE5 1-367): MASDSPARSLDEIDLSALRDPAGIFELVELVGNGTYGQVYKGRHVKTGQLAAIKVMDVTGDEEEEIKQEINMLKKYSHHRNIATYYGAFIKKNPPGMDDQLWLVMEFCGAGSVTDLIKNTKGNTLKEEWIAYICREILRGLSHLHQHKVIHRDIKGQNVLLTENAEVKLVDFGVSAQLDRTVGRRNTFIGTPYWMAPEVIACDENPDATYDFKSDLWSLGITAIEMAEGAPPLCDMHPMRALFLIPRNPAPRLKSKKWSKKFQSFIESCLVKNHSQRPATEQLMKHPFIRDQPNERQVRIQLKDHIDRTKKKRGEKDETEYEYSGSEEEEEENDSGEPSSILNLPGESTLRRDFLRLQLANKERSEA

| Compound | IC50 [nM] |
| --- | --- |
| CC(C)n1cnc(-c2ccc(F)cc2)c1-c1nc(C(=O)Nc2ccc(C3C[C@H]4CC[C@@H](C3)N4C)cn2)cs1 (stereo partly drawn) [Compound 60, 2-(4-(4-fluorophenyl)-1-isopropyl-1H-imidazol-5-yl)-N-(5-((1R,5S)-8-methyl-8-azabicyclo[3.2.1]octan-3-yl)pyridin-2-yl)thiazole-4-carboxamide] | 1 to 12 |
| O=C(Nc1ccc(N2CCOCC2)cn1)c1c[nH]c(-c2c(-c3ccc(F)cc3)ncn2C2CC(F)(F)C2)n1 [Compound 67, 3′-(3,3-difluorocyclobutyl)-5′-(4-fluorophenyl)-N-(5-morpholinopyridin-2-yl)-1H,3′H-[2,4′-biimidazole]-4-carboxamide] | 12 to 150 |
| [2H]C([2H])([2H])N1CC(c2ccc(NC(=O)c3c[nH]c(-c4c(-c5ccc(F)cc5)ncn4C([2H])(C)C)n3)nc2)C1 [Compound 118] | 12 to 150 |
| CC(C)c1onc(-c2ccc(F)cc2)c1-c1nc(C(=O)Nc2ccc(C3CN(C)C3)cn2)co1 [Compound 107, 2-(3-(4-fluorophenyl)-5-isopropylisoxazol-4-yl)-N-(5-(1-methylazetidin-3-yl)pyridin-2-yl)oxazole-4-carboxamide] | 12 to 150 |
| 2-(4-(4-fluorophenyl)-1-isopropyl-1H-imidazol-5-yl)-N-(5-((1R,5S)-8-methyl-8-azabicyclo[3.2.1]octan-3-yl)pyridin-2-yl)oxazole-4-carboxamide [Compound 62] | 12 to 150 |
| [2H]C([2H])([2H])N1CC(c2ccc(NC(=O)c3c[nH]c(-c4c(-c5ccc(F)cc5)ncn4C(C)C)n3)nc2)C1 [Compound 113] | 12 to 150 |
| CC(C)n1cnc(-c2ccc(F)cc2)c1-c1ncc(C(=O)Nc2ccc(N3CCN(C)CC3)cc2)s1 [Compound 3, 2-(4-(4-fluorophenyl)-1-isopropyl-1H-imidazol-5-yl)-N-(4-(4-methylpiperazin-1-yl)phenyl)thiazole-5-carboxamide] | > 150 |
| CC(C)n1cnc(-c2ccc(F)cc2)c1-c1nc(C(=O)Nc2ncc(N3CCN(C)CC3)cn2)cs1 [Compound 46, 2-(4-(4-fluorophenyl)-1-isopropyl-1H-imidazol-5-yl)-N-(5-(4-methylpiperazin-1-yl)pyrimidin-2-yl)thiazole-4-carboxamide] | > 150 |
| O=C(NC1CCOCC1)c1csc(-c2c(-c3ccc(F)cc3)ncn2C2CC(F)(F)C2)n1 [Compound 77, 2-(1-(3,3-difluorocyclobutyl)-4-(4-fluorophenyl)-1H-imidazol-5-yl)-N-(tetrahydro-2H-pyran-4-yl)thiazole-4-carboxamide] | > 150 |
| CC(C)n1cnc(-c2ccc(F)cc2)c1-c1nc(C(=O)Nc2ccc(N3CCN(C)CC3)nc2)c[nH]1 [Compound 22, 5′-(4-fluorophenyl)-3′-isopropyl-N-(6-(4-methylpiperazin-1-yl)pyridin-3-yl)-1H,3′H-[2,4′-biimidazole]-4-carboxamide] | 12 to 150 |
| O=C(Nc1ccc(C2COC2)cn1)c1coc(-c2c(-c3ccc(F)cc3)ncn2C2COC2)n1 [Compound 82, 2-(4-(4-fluorophenyl)-1-(oxetan-3-yl)-1H-imidazol-5-yl)-N-(5-(oxetan-3-yl)pyridin-2-yl)oxazole-4-carboxamide] | 12 to 150 |
| CN1C2CC1CN(c1ccc(NC(=O)c3c[nH]c(-c4c(-c5ccc(F)cc5)ncn4C4CC4)n3)nc1)C2 [Compound 49, 3′-cyclopropyl-5′-(4-fluorophenyl)-N-(5-(6-methyl-3,6-diazabicyclo[3.1.1]heptan-3-yl)pyridin-2-yl)-1H,3′H-[2,4′-biimidazole]-4-carboxamide] | 12 to 150 |

More lines, now with the values ahead:

| IC50 [nM] | Compound |
| --- | --- |
| 12 to 150 | O=C(Nc1ccc(C2COC2)cc1F)c1coc(-c2c(-c3ccc(F)cc3)ncn2C2COC2)n1 [Compound 80, N-(2-fluoro-4-(oxetan-3-yl)phenyl)-2-(4-(4-fluorophenyl)-1-(oxetan-3-yl)-1H-imidazol-5-yl)oxazole-4-carboxamide] |
| 12 to 150 | [2H]C([2H])([2H])N1CC(c2ccc(NC(=O)c3coc(-c4c(-c5ccc(F)cc5)ncn4C(C)C)n3)nc2)C1 [Compound 112, 2-[5-(4-fluorophenyl)-3-isopropyl-imidazol-4-yl]-N-[5-[1 (trideuteriomethyl)azetidin-3-yl]-2-pyridyl]oxazole-4-carboxamide] |
| 12 to 150 | O=C(Nc1ccc(N2CCC2)cn1)c1c[nH]c(-c2c(-c3ccc(F)cc3)ncn2C2CC(F)(F)C2)n1 [Compound 73, N-(5-(azetidin-1-yl)pyridin-2-yl)-3′-(3,3-difluorocyclobutyl)-5′-(4-fluorophenyl)-1H,3′H-[2,4′-biimidazole]-4-carboxamide] |
| 12 to 150 | CC(C)c1onc(-c2ccc(F)cc2)c1-c1nc(C(=O)Nc2ccc(N3CC4CC(C3)N4C)cn2)co1 [Compound 104, 2-(3-(4-fluorophenyl)-5-isopropylisoxazol-4-yl)-N-(5-(6-methyl-3,6-diazabicyclo[3.1.1]heptan-3-yl)pyridin-2-yl)oxazole-4-carboxamide] |
| 1 to 12 | O=C(Nc1ccc(C2COC2)cn1)c1csc(-c2c(-c3ccc(F)cc3)ncn2C2COC2)n1 [Compound 78, 2-(4-(4-fluorophenyl)-1-(oxetan-3-yl)-1H-imidazol-5-yl)-N-(5-(oxetan-3-yl)pyridin-2-yl)thiazole-4-carboxamide] |
| 1 to 12 | CC(C)n1cnc(-c2ccc(F)cc2)c1-c1csc(C(=O)Nc2ccc(N3CCN(C)CC3)cc2)n1 [Compound 4, 4-(4-(4-fluorophenyl)-1-isopropyl-1H-imidazol-5-yl)-N-(4-(4-methylpiperazin-1-yl)phenyl)thiazole-2-carboxamide] |
| 1 to 12 | [2H]C([2H])([2H])N1CC(c2ccc(NC(=O)c3csc(-c4c(-c5ccc(F)cc5)ncn4C([2H])(C)C)n3)nc2)C1 [Compound 110, 2-[3-(1-deuterio-1-methyl-ethyl)-5-(4-fluorophenyl)imidazol-4-yl]-N-[5-[1-(trideuteriomethyl)azetidin-3-yl]-2-pyridyl]thiazole-4-carboxamide] |
| 1 to 12 | CC(C)n1cnc(-c2ccc(F)cc2)c1-c1nc(C(=O)Nc2ccc(C3CCN(C)CC3)cn2)c[nH]1 [Compound 52, 5′-(4-fluorophenyl)-3′-isopropyl-N-(5-(1-methylpiperidin-4-yl)pyridin-2-yl)-1H,3′H-[2,4′-biimidazole]-4-carboxamide] |
| 12 to 150 | Cc1cc(NC(=O)c2cnc(-c3c(-c4ccc(F)cc4)ncn3C(C)C)[nH]2)ccc1N1CCN(C)CC1 [Compound 18, 5′-(4-fluorophenyl)-3′-isopropyl-N-(3-methyl-4-(4-methylpiperazin-1-yl)phenyl)-1H,3′H-[2,4′-biimidazole]-5-carboxamide] |
| 12 to 150 | [2H]C([2H])([2H])N1CC(c2ccc(NC(=O)c3c[nH]c(-c4c(-c5ccc(F)cc5)ncn4C4CCC4)n3)nc2)C1 [Compound 119, 2-[3-cyclobutyl-5-(4-fluorophenyl)imidazol-4-yl]-N-[5-[1-(trideuteriomethyl)azetidin-3-yl]-2-pyridyl]-1H-imidazole-4-carboxamide] |
| 12 to 150 | CC(C)n1cnc(-c2ccc(F)cc2)c1-c1coc(C(=O)Nc2ccc(N3CCN(C)CC3)cc2F)n1 [Compound 27, N-(2-fluoro-4-(4-methylpiperazin-1-yl)phenyl)-4-(4-(4-fluorophenyl)-1-isopropyl-1H-imidazol-5-yl)oxazole-2-carboxamide] |
| 12 to 150 | CN1CCN(c2ccc(NC(=O)c3c[nH]c(-c4c(-c5ccc(F)cc5)ncn4C4CC4)n3)cc2)CC1 [Compound 15, 3′-cyclopropyl-5′-(4-fluorophenyl)-N-(4-(4-methylpiperazin-1-yl)phenyl)-1H,3′H-[2,4′-biimidazole]-4-carboxamide] |
| 1 to 12 | CC(C)n1cnc(-c2ccc(F)cc2)c1-c1ncc(C(=O)Nc2ccc(N3CCC4(CC3)CN(C)C4)cc2)[nH]1 [Compound 19, 5′-(4-fluorophenyl)-3′-isopropyl-N-(4-(2-methyl-2,7-diazaspiro[3.5]nonan-7-yl)phenyl)-1H,3′H-[2,4′-biimidazole]-5-carboxamide] |
| 1 to 12 | CN1[C@@H]2CC[C@H]1CN(c1ccc(NC(=O)c3c[nH]c(-c4c(-c5ccc(F)cc5)ncn4C4CCC4)n3)nc1)C2 [Compound 48, 3′-cyclobutyl-5′-(4-fluorophenyl)-N-(5-((1R,5S)-8-methyl-3,8-diazabicyclo[3.2.1]octan-3-yl)pyridin-2-yl)-1H,3′H-[2,4′-biimidazole]-4-carboxamide] |
| 1 to 12 | CC(C)n1cnc(-c2ccc(F)cc2)c1-c1nc(C(=O)Nc2ccc(N3CCN(C)CC3)c(F)c2)c[nH]1 [Compound 16, N-(3-fluoro-4-(4-methylpiperazin-1-yl)phenyl)-5′-(4-fluorophenyl)-3′-isopropyl-1H,3′H-[2,4′-biimidazole]-4-carboxamide] |
| 1 to 12 | [2H]C([2H])([2H])N1CC(c2ccc(NC(=O)c3csc(-c4c(C(C)C)cnn4-c4ccc(F)cc4)n3)nc2)C1 [Compound 116, 2-(1-(4-fluorophenyl)-4-isopropyl-1H-pyrazol-5-yl)-N-(5-(1-(trideuteriomethyl)azetidin-3-yl)pyridin-2-yl)thiazole-4-carboxamide] |
| 1 to 12 | CN1C2CC1CN(c1ccc(NC(=O)c3coc(-c4c(-c5ccc(F)cc5)ncn4C4CC(F)(F)C4)n3)c(F)c1)C2 [Compound 103, 2-(1-(3,3-difluorocyclobutyl)-4-(4-fluorophenyl)-1H-imidazol-5-yl)-N-(2-fluoro-4-(6-methyl-3,6-diazabicyclo[3.1.1]heptan-3-yl)phenyl)oxazole-4-carboxamide] |
